Results: US20220304978A1, “INHIBITING MESANGIAL CELL ACTIVATION” (Chinook Therapeutics, Inc., priority 2019, published 2022)

Tested on: kidney tissue of g-ddY mice
Assay: RNA-seq differential gene expression in kidney tissue of g-ddY mice
Format: in vivo, mouse
Description: RNA isolation and sequencing libraries were generated using standard protocols. Sequencing was performed using an Illumina NextSeq500 using manufacturer's instructions with a read length of 75 bp and a read depth of 30 million. Raw data was assembled to FASTQ files. Following QC analysis, high quality sequencing reads (e.g., reads with a Phred quality score >36) were aligned to the mouse reference genome (GRCm38-mm10) using the default parameters of the align algorithm and transcript count tables of each library was generated using the default parameters of the featureCounts algorithm of the RSubread package (Liao Y, Smyth GK, Shi W, 2019). High quality sequencing reads mapped to 27,129 genes. Following additional QC of low count filtering (i.e. transcripts <10 counts across all samples), 16,207 genes were identified and used for further analysis. The remaining sequencing read counts of the included 16,207 genes were normalized to library size, log-transformed, and were quantified as counts per million (CPM). Select RNA-seq counts were validated using qPCR. Sequencing read counts (CPM) were used for identification of differential gene expression between specified populations using the quasi-likelihood methodology of the edgeR package. […] MA plots were generated using edgeR. Heatmaps and other plots were generated using the gplots and ggplot2 package.

[1] = 20 mg/kg/day vs control, cell proliferation signaling
[2] = 20 mg/kg/day vs control, inflammatory response signaling
[3] = 20 mg/kg/day vs control, mesangial cell signature
[4] = 30 mg/kg/day vs control, IL6 signaling
[5] = 30 mg/kg/day vs control, NF-kB signaling
[6] = 30 mg/kg/day vs control, PDGF signaling
[7] = 30 mg/kg/day vs control, cell proliferation signaling
[8] = 30 mg/kg/day vs control, inflammatory response signaling
[9] = 30 mg/kg/day vs control, mesangial cell signature

CCCCN(CCCC)C(=O)CN1C[C@H](c2ccc3c(c2)OCO3)[C@@H](C(=O)O)[C@@H]1c1ccc(OC)cc1 [atrasentan, (2R,3R,4S)-4-(1,3-benzodioxol-5-yl)-1-[2-(dibutylamino)-2-oxoethyl]-2-(4-methoxyphenyl)pyrrolidine-3-carboxylic acid]
Rapgef5 logFC [1]: −0.3804 | Rhot2 logFC [1]: 0.4576 | Slc7a1 logFC [1]: −0.7304 | Slc12a2 logFC [1]: −0.3373 | Slc38a1 logFC [1]: −0.6989 | Smc3 logFC [1]: −0.1696 | Sorbs2 logFC [1]: −0.4717 | Tiam1 logFC [1]: −0.9494 | Tuba4a logFC [1]: 0.2861 | Vcl logFC [1]: −0.3317 | Ythdc1 logFC [1]: −0.0815 | Btg2 logFC [2]: −0.6974 | Cdkn1a logFC [2]: 0.2546 | Chst2 logFC [2]: −0.368 | Csf1 logFC [2]: −1.089 | Edn1 logFC [2]: −1.328 | Eif2ak2 logFC [2]: −0.3002 | F3 logFC [2]: −0.5235 | Gabbr1 logFC [2]: −0.1316 | Hpn logFC [2]: 0.4187 | Il1r1 logFC [2]: −0.8263 | Ly6e logFC [2]: 0.2436 | Nfkb1 logFC [2]: −0.616 | Nfkbia logFC [2]: −0.7041 | Rnf144b logFC [2]: −0.9765 | Ros1 logFC [2]: −1.992 | Serpine1 logFC [2]: −1.501 | Slc4a4 logFC [2]: 0.5245 | Slc7a1 logFC [2]: −0.7304 | Slc7a2 logFC [2]: −1.336 | Slc11a2 logFC [2]: 0.35 | Ahnak logFC [3]: −0.7128 | Akap12 logFC [3]: −0.5404 | Akt3 logFC [3]: −0.4673 | Aldob logFC [3]: 0.4923 | Ankrd12 logFC [3]: −0.2463 | C7 logFC [3]: −1.277 | Cald1 logFC [3]: −0.5361 | Cblb logFC [3]: −0.2068 | Ebf1 logFC [3]: −0.3512 | Epb41l2 logFC [3]: −0.6149 | Ets1 logFC [3]: −0.3065 | Fchsd2 logFC [3]: −0.1882 | Frmd4a logFC [3]: −0.3955 | Gata3 logFC [3]: −0.4924 | Gpx3 logFC [3]: 0.71 | Igfbp7 logFC [3]: 0.1088 | Lama2 logFC [3]: −0.4437 | Maml2 logFC [3]: −0.2311 | Mef2c logFC [3]: −0.6302 | Meis1 logFC [3]: −0.3593 | Myh9 logFC [3]: −0.4543 | Myo1e logFC [3]: −0.292 | Nbea logFC [3]: −0.1933 | Nfkbia logFC [3]: −0.7041 | Nr4a1 logFC [3]: −1.621 | Piezo2 logFC [3]: −0.6148 | Postn logFC [3]: −2.293 | Pparg logFC [3]: −0.5616 | Ppp1r12a logFC [3]: −0.2135 | Prkg1 logFC [3]: −0.328 | Psd3 logFC [3]: −0.5227 | Ptprm logFC [3]: −0.2678 | Rapgef5 logFC [3]: −0.3804 | Raph1 logFC [3]: −0.3852 | Rbms3 logFC [3]: −0.7192 | Robo1 logFC [3]: −0.7261 | Stard13 logFC [3]: −0.6367 | Tacc1 logFC [3]: −0.3693 | Tcf4 logFC [3]: −0.224 | Tjp1 logFC [3]: −0.3054 | Tns3 logFC [3]: −0.3043 | Unc5c logFC [3]: 0.3685 | Utrn logFC [3]: −0.5143 | Zeb2 logFC [3]: −0.6492 | Cntfr logFC [4]: −0.9365 | Csf1 logFC [4]: −1.26 | Il1r1 logFC [4]: −0.6078 | Il2ra logFC [4]: −1.58 | Map3k8 logFC [4]: −0.8664 | Ackr3 logFC [5]: 0.5485 | Btg1 logFC [5]: −0.4825 | Btg2 logFC [5]: −0.6689 | Ccn1 logFC [5]: −0.9198 | Ccnd1 logFC [5]: 0.6947 | Cdkn1a logFC [5]: 0.6369 | Csf1 logFC [5]: −1.26 | Dnajb4 logFC [5]: −0.7534 | Edn1 logFC [5]: −1.688 | Efna1 logFC [5]: 0.7278 | Ehd1 logFC [5]: 0.4138 | F3 logFC [5]: −0.564 | Fosl2 logFC [5]: −1.205 | Gem logFC [5]: −1.912 | Id2 logFC [5]: 0.5394 | Ifit2 logFC [5]: −0.6119 | Jag1 logFC [5]: −0.6784 | Klf2 logFC [5]: −0.7182 | Klf4 logFC [5]: −0.9474 | Map3k8 logFC [5]: −0.8664 | Nfat5 logFC [5]: −0.5845 | Nfkb1 logFC [5]: −0.6498 | Nfkbia logFC [5]: −0.7307 | Nr4a1 logFC [5]: −1.803 | Nr4a2 logFC [5]: −1.728 | Nr4a3 logFC [5]: −1.939 | Per1 logFC [5]: −0.9307 | Pfkfb3 logFC [5]: −1.485 | Pnrcl logFC [5]: 0.4856 | Rel logFC [5]: −1.298 | Rhob logFC [5]: −0.7265 | Serpine1 logFC [5]: −1.387 | Snn logFC [5]: 0.4725 | Spsb1 logFC [5]: −1.097 | Tnfaip8 logFC [5]: 0.517 | Traf1 logFC [5]: −1.371 | Trib1 logFC [5]: −1.074 | Zbtb10 logFC [5]: −0.2912 | Hras logFC [6]: 0.4354 | Map3k1 logFC [6]: −0.7636 | Nfkb1 logFC [6]: −0.6498 | Nfkbia logFC [6]: −0.7307 | Pdgfb logFC [6]: −0.5424 | Pdgfra logFC [6]: −0.7094 | Pik3cg logFC [6]: −0.7287 | Pik3r1 logFC [6]: −0.6223 | Pla2g4a logFC [6]: −0.9024 | Tiam1 logFC [6]: −1.227 | Arid4a logFC [7]: −0.5719 | Atrx logFC [7]: −0.4031 | Bcar1 logFC [7]: 0.4182 | Ccdc88a logFC [7]: −0.7206 | Ccnd1 logFC [7]: 0.6947 | Cep192 logFC [7]: −0.43 | Cntrl logFC [7]: −0.5569 | Dmd logFC [7]: −0.405 | Epb41l2 logFC [7]: −0.7021 | Fgd6 logFC [7]: −0.6983 | Flna logFC [7]: −0.6183 | Itsn1 logFC [7]: −0.5129 | Kmt5a logFC [7]: 0.4169 | Meis1 logFC [7]: −0.4934 | Myh9 logFC [7]: −0.6171 | Myh10 logFC [7]: −0.5242 | Myo1e logFC [7]: −0.4177 | Nin logFC [7]: −0.7352 | Ophn1 logFC [7]: −0.7129 | Rapgef5 logFC [7]: −0.4225 | Rhot2 logFC [7]: 0.5432 | Slc7a1 logFC [7]: −0.7952 | Slc12a2 logFC [7]: −0.3306 | Slc38a1 logFC [7]: −0.8108 | Smc3 logFC [7]: −0.4558 | Sorbs2 logFC [7]: −0.3601 | Tiam1 logFC [7]: −1.227 | Tuba4a logFC [7]: 0.4958 | Vcl logFC [7]: −0.3604 | Ythdc1 logFC [7]: −0.3579 | Btg2 logFC [8]: −0.6689 | Cdkn1a logFC [8]: 0.6369 | Chst2 logFC [8]: −0.9214 | Csf1 logFC [8]: −1.26 | Edn1 logFC [8]: −1.688 | Eif2ak2 logFC [8]: −0.5033 | F3 logFC [8]: −0.564 | Gabbr1 logFC [8]: −0.5762 | Hpn logFC [8]: 0.6197 | Il1r1 logFC [8]: −0.6078 | Ly6e logFC [8]: 0.6857 | Nfkb1 logFC [8]: −0.6498 | Nfkbia logFC [8]: −0.7307 | Rnf144b logFC [8]: −0.8848 | Ros1 logFC [8]: −1.985 | Serpine1 logFC [8]: −1.387 | Slc4a4 logFC [8]: 0.6146 | Slc7a1 logFC [8]: −0.7952 | Slc7a2 logFC [8]: −0.9808 | Slc11a2 logFC [8]: 0.4205 | Ahnak logFC [9]: −1.013 | Akap12 logFC [9]: −0.8211 | Akt3 logFC [9]: −0.4843 | Aldob logFC [9]: 0.748 | Ankrd12 logFC [9]: −0.4726 | C7 logFC [9]: −1.079 | Cald1 logFC [9]: −0.506 | Cblb logFC [9]: −0.4288 | Ebf1 logFC [9]: −0.4506 | Epb41l2 logFC [9]: −0.7021 | Ets1 logFC [9]: −0.3379 | Fchsd2 logFC [9]: −0.3772 | Frmd4a logFC [9]: −0.5742 | Gata3 logFC [9]: −0.5216 | Gpx3 logFC [9]: 1.122 | Igfbp7 logFC [9]: 0.4259 | Lama2 logFC [9]: −0.4895 | Maml2 logFC [9]: −0.4441 | Mef2c logFC [9]: −0.6869 | Meis1 logFC [9]: −0.4934 | Myh9 logFC [9]: −0.6171 | Myo1e logFC [9]: −0.4177 | Nbea logFC [9]: −0.432 | Nfkbia logFC [9]: −0.7307 | Nr4a1 logFC [9]: −1.803 | Piezo2 logFC [9]: −0.8237 | Postn logFC [9]: −1.247 | Pparg logFC [9]: −0.6781 | Ppp1r12a logFC [9]: −0.3826 | Prkg1 logFC [9]: −0.6356 | Psd3 logFC [9]: −0.5843 | Ptprm logFC [9]: −0.5453 | Rapgef5 logFC [9]: −0.4225 | Raph1 logFC [9]: −0.5358 | Rbms3 logFC [9]: −0.8895 | Robo1 logFC [9]: −0.6009 | Stard13 logFC [9]: −0.8466 | Tacc1 logFC [9]: −0.4924 | Tcf4 logFC [9]: −0.3055 | Tjp1 logFC [9]: −0.3989 | Tns3 logFC [9]: −0.4522 | Unc5c logFC [9]: 0.9517 | Utrn logFC [9]: −0.7697 | Zeb2 logFC [9]: −0.6778
